Test results reported in ChEMBL document CHEMBL1201862, “PubChem BioAssay data set” (2004).
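Following 48 hours of exposure in 96-well plates, responses at five concentrations were used to interpolate endpoints linearly. GI50: concentration for 50% inhibition of growth.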 The source made the active and inactive calls. Rule as the data show it: active = GI50 up to about 1.1 µM and inactive = higher.

Tests used:
Assay in all cases: DTP human tumour cell line panel, 48 h
CCRF-CEM = system: CCRF-CEM
UACC-257 = system: UACC-257
UO-31 = system: UO-31
K562 = system: K562
SF-295 = system: SF-295
COLO 205 = system: COLO 205
SK-OV-3 = system: SK-OV-3
SW-620 = system: SW-620
A498 = system: A498
HOP-62 = system: HOP-62
786-0 = system: 786-0
HOP-92 = system: HOP-92
HCT-15 = system: HCT-15
SNB-19 = system: SNB-19
RXF 393 = system: RXF 393
DU-145 = system: DU-145
OVCAR-4 = system: OVCAR-4
MOLT-4 = system: MOLT-4
NCI-H226 = system: NCI-H226
MCF7 = system: MCF7

SMILES	GI50 (CCRF-CEM)	GI50 (UACC-257)	GI50 (UO-31)	GI50 (K562)	GI50 (SF-295)	GI50 (COLO 205)	GI50 (SK-OV-3)	GI50 (SW-620)	GI50 (A498)	GI50 (HOP-62)	GI50 (786-0)	GI50 (HOP-92)	GI50 (HCT-15) [µM]	GI50 (SNB-19)	GI50 (RXF 393)	GI50 (DU-145)	GI50 (OVCAR-4)	GI50 (MOLT-4)	GI50 (NCI-H226)	GI50 (MCF7)
S=C=Nc1ccc(CSc2nc3ccccc3[nH]2)cc1	29.5 µM (inactive)	19.3 µM (inactive)	19.5 µM (inactive)	39.4 µM (inactive)	17.3 µM (inactive)	15.5 µM (inactive)	21.6 µM (inactive)	17.3 µM (inactive)	23 µM (inactive)	17.5 µM (inactive)	19.9 µM (inactive)	16.8 µM (inactive)	15	25.9 µM (inactive)	16.4 µM (inactive)	16.1 µM (inactive)	17.3 µM (inactive)	23.7 µM (inactive)	–	–
CC1CCC(C(=O)O)(C(Br)C(=O)O)CC1 (stereo not drawn)	> 100 µM (inactive)	> 100 µM (inactive)	> 100 µM (inactive)	> 100 µM (inactive)	> 100 µM (inactive)	–	–	> 100 µM (inactive)	–	> 100 µM (inactive)	> 100 µM (inactive)	> 100 µM (inactive)	> 100	> 100 µM (inactive)	> 100 µM (inactive)	> 100 µM (inactive)	> 100 µM (inactive)	> 100 µM (inactive)	> 100 µM (inactive)	–
O=C1OC(c2ccccc2)=N/C1=C\c1cccc2ccccc12	> 100 µM (inactive)	> 100 µM (inactive)	> 100 µM (inactive)	> 100 µM (inactive)	> 100 µM (inactive)	> 100 µM (inactive)	> 100 µM (inactive)	> 100 µM (inactive)	> 100 µM (inactive)	> 100 µM (inactive)	> 100 µM (inactive)	52.4 µM (inactive)	> 100	> 100 µM (inactive)	> 100 µM (inactive)	–	> 100 µM (inactive)	> 100 µM (inactive)	> 100 µM (inactive)	–
Cc1cc(Cl)ccc1N1C(=O)C(=O)C(c2nc3ccccc3s2)/C(=N\NC(=O)c2ccccc2O)C1=O (stereo not drawn)	> 100 µM (inactive)	> 100 µM (inactive)	> 100 µM (inactive)	> 100 µM (inactive)	> 100 µM (inactive)	> 100 µM (inactive)	> 100 µM (inactive)	> 100 µM (inactive)	> 100 µM (inactive)	> 100 µM (inactive)	> 100 µM (inactive)	46.7 µM (inactive)	> 100	> 100 µM (inactive)	> 100 µM (inactive)	–	> 100 µM (inactive)	–	> 100 µM (inactive)	–
Cc1ccccc1/C=N/C12CC3CC(CC(C3)C1)C2	> 100 µM (inactive)	> 100 µM (inactive)	> 100 µM (inactive)	> 100 µM (inactive)	49.3 µM (inactive)	> 100 µM (inactive)	> 100 µM (inactive)	> 100 µM (inactive)	> 100 µM (inactive)	> 100 µM (inactive)	> 100 µM (inactive)	> 100 µM (inactive)	> 100	> 100 µM (inactive)	> 100 µM (inactive)	–	> 100 µM (inactive)	> 100 µM (inactive)	> 100 µM (inactive)	–
Cc1ccc(-n2cc(-c3ccc(Cl)cc3)c3c(NNC(=S)NCc4ccccc4)ncnc32)cc1	2.77 µM (inactive)	12.6 µM (inactive)	10.1 µM (inactive)	4.99 µM (inactive)	6.76 µM (inactive)	10.7 µM (inactive)	16.3 µM (inactive)	4.69 µM (inactive)	23.6 µM (inactive)	16.6 µM (inactive)	9.77 µM (inactive)	25.4 µM (inactive)	6.08	23.3 µM (inactive)	14.3 µM (inactive)	24.9 µM (inactive)	17.5 µM (inactive)	6.38 µM (inactive)	92.7 µM (inactive)	–
CC1(C)COC(c2cccc(C3=NC(C)(C)CO3)c2)=N1	–	> 100 µM (inactive)	> 100 µM (inactive)	> 100 µM (inactive)	–	> 100 µM (inactive)	–	> 100 µM (inactive)	–	> 100 µM (inactive)	> 100 µM (inactive)	> 100 µM (inactive)	> 100	> 100 µM (inactive)	–	> 100 µM (inactive)	83.9 µM (inactive)	> 100 µM (inactive)	> 100 µM (inactive)	> 100 µM (inactive)
COC(=O)[C@@]12C(=O)CCC(=O)C1C1C(=CC2C)O[C@@H]2OC3(CCCCC3)O[C@H]12 (stereo partly drawn)	29.9 µM (inactive)	> 100 µM (inactive)	> 100 µM (inactive)	40.3 µM (inactive)	> 100 µM (inactive)	> 68.1 µM (inactive)	> 100 µM (inactive)	48.1 µM (inactive)	> 100 µM (inactive)	> 100 µM (inactive)	> 83.6 µM (inactive)	40.5 µM (inactive)	54.2	> 89.5 µM (inactive)	69.2 µM (inactive)	–	59.2 µM (inactive)	27.4 µM (inactive)	> 100 µM (inactive)	–
CC(C)N(C(=O)C12C3C4C5(C#N)C3C1(I)C5C42I)C(C)C (stereo not drawn)	> 44.3 µM (inactive)	> 100 µM (inactive)	> 100 µM (inactive)	> 52.8 µM (inactive)	> 100 µM (inactive)	> 42 µM (inactive)	> 100 µM (inactive)	> 27 µM (inactive)	> 100 µM (inactive)	> 100 µM (inactive)	> 46.1 µM (inactive)	> 100 µM (inactive)	> 41.9	> 100 µM (inactive)	> 100 µM (inactive)	–	> 45.5 µM (inactive)	> 100 µM (inactive)	> 100 µM (inactive)	–
O=C(NCC(O)CNC(=O)C(F)(F)F)C(F)(F)F	> 100 µM (inactive)	> 100 µM (inactive)	> 100 µM (inactive)	> 100 µM (inactive)	> 100 µM (inactive)	> 100 µM (inactive)	> 100 µM (inactive)	> 100 µM (inactive)	> 100 µM (inactive)	> 100 µM (inactive)	> 100 µM (inactive)	> 100 µM (inactive)	> 100	> 100 µM (inactive)	> 100 µM (inactive)	–	> 100 µM (inactive)	> 100 µM (inactive)	> 100 µM (inactive)	–
CCOC(=O)C12C(C(=O)OC)=C(C)N(NC(=O)Nc3ccccc3)C1(N)N(NC(=O)Nc1ccccc1)C(C)=C2C(=O)OC (stereo not drawn)	23.7 µM (inactive)	21.1 µM (inactive)	40 µM (inactive)	29.9 µM (inactive)	26.1 µM (inactive)	> 41.1 µM (inactive)	> 59.8 µM (inactive)	40.6 µM (inactive)	30.1 µM (inactive)	20.5 µM (inactive)	39.5 µM (inactive)	24.9 µM (inactive)	35.2	29.4 µM (inactive)	29.2 µM (inactive)	–	39.8 µM (inactive)	17.9 µM (inactive)	> 100 µM (inactive)	–
CCOC(=O)/C=C(/N=P(c1ccccc1)(c1ccccc1)c1ccccc1)C(F)(F)F	> 10 µM (inactive)	> 10 µM (inactive)	> 100 µM (inactive)	> 10 µM (inactive)	> 10 µM (inactive)	> 10 µM (inactive)	> 100 µM (inactive)	–	> 10 µM (inactive)	> 10 µM (inactive)	> 10 µM (inactive)	1.44 µM (inactive)	> 10	> 10 µM (inactive)	> 10 µM (inactive)	> 10 µM (inactive)	> 10 µM (inactive)	> 10 µM (inactive)	> 10 µM (inactive)	–
Cc1ccc(S(=O)(=O)NC(CCC(=O)NN)C(=O)NN)cc1 (stereo not drawn)	> 100 µM (inactive)	> 100 µM (inactive)	> 100 µM (inactive)	> 100 µM (inactive)	> 100 µM (inactive)	> 100 µM (inactive)	> 100 µM (inactive)	> 100 µM (inactive)	> 100 µM (inactive)	> 100 µM (inactive)	> 100 µM (inactive)	> 100 µM (inactive)	0.304	> 100 µM (inactive)	> 100 µM (inactive)	–	16.5 µM (inactive)	> 100 µM (inactive)	> 100 µM (inactive)	> 100 µM (inactive)
Nc1nc(NNc2ccccc2F)cc(=O)[nH]1	78.5 µM (inactive)	> 100 µM (inactive)	> 100 µM (inactive)	58.6 µM (inactive)	> 100 µM (inactive)	97.1 µM (inactive)	–	> 100 µM (inactive)	> 100 µM (inactive)	> 100 µM (inactive)	58.1 µM (inactive)	–	> 100	> 100 µM (inactive)	–	> 100 µM (inactive)	> 100 µM (inactive)	> 100 µM (inactive)	> 100 µM (inactive)	> 100 µM (inactive)
COC(=O)C(C(=O)C(=O)Nc1ccc([N+](=O)[O-])cc1[N+](=O)[O-])c1nc2ccc(Cl)cc2nc1O (stereo not drawn)	> 100 µM (inactive)	> 100 µM (inactive)	41.1 µM (inactive)	> 100 µM (inactive)	> 100 µM (inactive)	> 100 µM (inactive)	> 100 µM (inactive)	> 100 µM (inactive)	44.2 µM (inactive)	> 100 µM (inactive)	> 100 µM (inactive)	> 100 µM (inactive)	> 100	> 100 µM (inactive)	30.5 µM (inactive)	–	> 100 µM (inactive)	73.1 µM (inactive)	79.1 µM (inactive)	–
Cc1ccccc1SC(/C=C/NNC1=NN=C(c2ccccc2)C(c2ccccc2)N1)c1ccccc1 (stereo not drawn)	27.3 µM (inactive)	18.6 µM (inactive)	16.9 µM (inactive)	30.2 µM (inactive)	18.8 µM (inactive)	36.4 µM (inactive)	22.4 µM (inactive)	27.7 µM (inactive)	23.7 µM (inactive)	17.7 µM (inactive)	11.9 µM (inactive)	9.57 µM (inactive)	34	50 µM (inactive)	11.1 µM (inactive)	–	2.99 µM (inactive)	41.7 µM (inactive)	18.3 µM (inactive)	–
